# Patent US9296741B2, “Bromodomain inhibitors” (priority 2012, dated 2016)
# Experiments:
# [1] = test system: breast cancer cell line MX-1; assay: MX-1 cell line proliferation assay; assay type: cell-based, human; conditions: Homo sapiens, MX1, 72 h; MX-1 cells, 3-day proliferation, Cell Titer Glo; read-out: Cellular proliferation: EC50
# [2] = molecular target: human BRD4 second bromodomain (BDII_E352-M457) (Homo sapiens (Human), UniProt O60885); assay: TR-FRET bromodomain binding assay, BRD4 second bromodomain
# [3] = Rat liver microsome stability assay; assay type: in vitro ADME; conditions: rat liver microsomes (male Sprague-Dawley), 0.5 μM test compound, 0.25 mg/mL microsomal protein, pH 7.4, 37° C.; read-out: Stability in rat liver microsomes (t1/2 in minutes)
# [4] = Mouse liver microsome stability assay; assay type: in vitro ADME; conditions: male, CD1, mouse, microsomes, pH 7.4
# [5] = molecular target: human BRD4 first bromodomain (BDI_K57-E168) (Homo sapiens (Human), UniProt O60885); assay: TR-FRET bromodomain binding assay, BRD4 first bromodomain
# [6] = Human liver microsome stability assay; assay type: in vitro ADME; conditions: both sexes, human, microsomes, pH 7.4
Structure (SMILES),EC50 [1] [nM],Ki [2] [nM],half-life at 0.5 μM [3] [min],half-life at 0.5 μM [4] [min],Ki [5] [nM],half-life at 0.5 μM [6] [min]
"CCCS(=O)(=O)Nc1ccc(Oc2c(F)cc(F)cc2F)c(-c2cn(C)c(=O)c3[nH]ccc23)c1 [Example 94, N-[3-(6-methyl-7-oxo-6,7-dihydro-1H-pyrrolo[2,3-c]pyridin-4-yl)-4-(2,4,6-trifluorophenoxy)phenyl]propane-1-sulfonamide]",110,10,28,25,16.2,47
"Cn1cc(-c2cc(S(N)(=O)=O)ccc2Oc2ccccc2)c2cc[nH]c2c1=O [Example 95, 3-(6-methyl-7-oxo-6,7-dihydro-1H-pyrrolo[2,3-c]pyridin-4-yl)-4-phenoxybenzenesulfonamide]",56,1.1,7,36,8.7,> 120
"Cn1cc(-c2cc(S(N)(=O)=O)cnc2NC2CCCCC2)c2cc[nH]c2c1=O [Example 96, 6-(cyclohexylamino)-5-(6-methyl-7-oxo-6,7-dihydro-1H-pyrrolo[2,3-c]pyridin-4-yl)pyridine-3-sulfonamide]",16,1.1,13,33,0.63,24
"CNS(=O)(=O)Nc1ccc(Oc2c(F)cc(F)cc2F)c(-c2cn(C)c(=O)c3[nH]ccc23)c1 [Example 98, N-methyl-N′-[3-(6-methyl-7-oxo-6,7-dihydro-1H-pyrrolo[2,3-c]pyridin-4-yl)-4-(2,4,6-trifluorophenoxy)phenyl]sulfuric diamide]",52.9,2.7,33,10,6.5,26
"CCCS(=O)(=O)Nc1ccc(OC2CCOCC2)c(-c2cn(C)c(=O)c3[nH]ccc23)c1 [Example 99, N-[3-(6-methyl-7-oxo-6,7-dihydro-1H-pyrrolo[2,3-c]pyridin-4-yl)-4-(tetrahydro-2H-pyran-4-yloxy)phenyl]propane-1-sulfonamide]",97.7,24.7,22,35,3.5,> 120
"CCS(=O)(=O)Nc1ccc(OC2CCC(F)(F)CC2)c(-c2cn(C)c(=O)c3[nH]ccc23)c1 [Example 101, N-{4-[(4,4-difluorocyclohexyl)oxy]-3-(6-methyl-7-oxo-6,7-dihydro-1H-pyrrolo[2,3-c]pyridin-4-yl)phenyl}ethanesulfonamide]",11.2,4.3,12,20,1.2,92
"CNS(=O)(=O)Nc1ccc(OC2CCC(F)(F)CC2)c(-c2cn(C)c(=O)c3[nH]ccc23)c1 [Example 104, N-{4-[(4,4-difluorocyclohexyl)oxy]-3-(6-methyl-7-oxo-6,7-dihydro-1H-pyrrolo[2,3-c]pyridin-4-yl)phenyl}-N′-methylsulfuric diamide]",65.3,17.9,8,7,4.4,27
"CCS(=O)(=O)Nc1ccc(OC2CCCOC2)c(-c2cn(C)c(=O)c3[nH]ccc23)c1 (stereo not drawn) [Example 105, N-[3-(6-methyl-7-oxo-6,7-dihydro-1H-pyrrolo[2,3-c]pyridin-4-yl)-4-(tetrahydro-2H-pyran-3-yloxy)phenyl]ethanesulfonamide]",16,1.5,13,7,0.52,> 120
"CNS(=O)(=O)Nc1ccc(OC2CCCOC2)c(-c2cn(C)c(=O)c3[nH]ccc23)c1 (stereo not drawn) [Example 108, N-methyl-N′-[3-(6-methyl-7-oxo-6,7-dihydro-1H-pyrrolo[2,3-c]pyridin-4-yl)-4-(tetrahydro-2H-pyran-3-yloxy)phenyl]sulfuric diamide]",38,5.3,33,13,1.4,37
"CCS(=O)(=O)Nc1ccc(OC2CCOCC2)c(-c2cn(C)c(=O)c3[nH]ccc23)c1 [Example 109, N-[3-(6-methyl-7-oxo-6,7-dihydro-1H-pyrrolo[2,3-c]pyridin-4-yl)-4-(tetrahydro-2H-pyran-4-yloxy)phenyl]ethanesulfonamide]",32,3.4,61,> 120,0.72,71
"Cn1cc(-c2cc(S(N)(=O)=O)cnc2Nc2ccccc2)c2cc[nH]c2c1=O [Example 111, 5-(6-methyl-7-oxo-6,7-dihydro-1H-pyrrolo[2,3-c]pyridin-4-yl)-6-(phenylamino)pyridine-3-sulfonamide]",199,10.3,42,63,8.7,> 120
"Cn1cc(-c2cc(NS(=O)(=O)CCF)ccc2Oc2c(F)cc(F)cc2F)c2cc[nH]c2c1=O [Example 114, 2-fluoro-N-[3-(6-methyl-7-oxo-6,7-dihydro-1H-pyrrolo[2,3-c]pyridin-4-yl)-4-(2,4,6-trifluorophenoxy)phenyl]ethanesulfonamide]",> 3000,121,5,8,136,13
"CCCS(=O)(=O)Nc1ccc(Oc2ccc(F)cc2F)c(-c2cn(C)c(=O)c3[nH]ccc23)c1 [Example 115, N-[4-(2,4-difluorophenoxy)-3-(6-methyl-7-oxo-6,7-dihydro-1H-pyrrolo[2,3-c]pyridin-4-yl)phenyl]propane-1-sulfonamide]",55,26.9,38,55,67.1,41
"Cn1cc(-c2cc(C(=O)NCc3ccncc3)ccc2Oc2ccc(F)cc2F)c2cc[nH]c2c1=O [Example 121, 4-(2,4-difluorophenoxy)-3-(6-methyl-7-oxo-6,7-dihydro-1H-pyrrolo[2,3-c]pyridin-4-yl)-N-(pyridin-4-ylmethyl)benzamide]",251,33.4,25,24,15.5,21
"Cn1cc(-c2cc(C(=O)NCC(C)(C)O)ccc2Oc2ccc(F)cc2F)c2cc[nH]c2c1=O [Example 123, 4-(2,4-difluorophenoxy)-N-(2-hydroxy-2-methylpropyl)-3-(6-methyl-7-oxo-6,7-dihydro-1H-pyrrolo[2,3-c]pyridin-4-yl)benzamide]",118,36.1,> 120,45,27.1,> 120
"Cn1cc(-c2cc(C(=O)NCc3ccccn3)ccc2Oc2ccc(F)cc2F)c2cc[nH]c2c1=O [Example 129, 4-(2,4-difluorophenoxy)-3-(6-methyl-7-oxo-6,7-dihydro-1H-pyrrolo[2,3-c]pyridin-4-yl)-N-(pyridin-2-ylmethyl)benzamide]",118,45.6,38,12,37.9,54
